Measured values from ChEMBL document CHEMBL1201862, “PubChem BioAssay data set” (2004).
Calls of active or inactive are those of the source.

Legend:
[1] = target: T1, Aminopeptidase N (Plasmodium falciparum FcB1/Columbia, UniProt O96935); assay: malaria alanyl aminopeptidase activity blockers – biochemical, fluorogenic H-Leu-NHMec substrate, 1536-well (AID 1445); parameters: species or system Plasmodium falciparum 3D7, 3D7
T1 sequence (O96935 whole entry): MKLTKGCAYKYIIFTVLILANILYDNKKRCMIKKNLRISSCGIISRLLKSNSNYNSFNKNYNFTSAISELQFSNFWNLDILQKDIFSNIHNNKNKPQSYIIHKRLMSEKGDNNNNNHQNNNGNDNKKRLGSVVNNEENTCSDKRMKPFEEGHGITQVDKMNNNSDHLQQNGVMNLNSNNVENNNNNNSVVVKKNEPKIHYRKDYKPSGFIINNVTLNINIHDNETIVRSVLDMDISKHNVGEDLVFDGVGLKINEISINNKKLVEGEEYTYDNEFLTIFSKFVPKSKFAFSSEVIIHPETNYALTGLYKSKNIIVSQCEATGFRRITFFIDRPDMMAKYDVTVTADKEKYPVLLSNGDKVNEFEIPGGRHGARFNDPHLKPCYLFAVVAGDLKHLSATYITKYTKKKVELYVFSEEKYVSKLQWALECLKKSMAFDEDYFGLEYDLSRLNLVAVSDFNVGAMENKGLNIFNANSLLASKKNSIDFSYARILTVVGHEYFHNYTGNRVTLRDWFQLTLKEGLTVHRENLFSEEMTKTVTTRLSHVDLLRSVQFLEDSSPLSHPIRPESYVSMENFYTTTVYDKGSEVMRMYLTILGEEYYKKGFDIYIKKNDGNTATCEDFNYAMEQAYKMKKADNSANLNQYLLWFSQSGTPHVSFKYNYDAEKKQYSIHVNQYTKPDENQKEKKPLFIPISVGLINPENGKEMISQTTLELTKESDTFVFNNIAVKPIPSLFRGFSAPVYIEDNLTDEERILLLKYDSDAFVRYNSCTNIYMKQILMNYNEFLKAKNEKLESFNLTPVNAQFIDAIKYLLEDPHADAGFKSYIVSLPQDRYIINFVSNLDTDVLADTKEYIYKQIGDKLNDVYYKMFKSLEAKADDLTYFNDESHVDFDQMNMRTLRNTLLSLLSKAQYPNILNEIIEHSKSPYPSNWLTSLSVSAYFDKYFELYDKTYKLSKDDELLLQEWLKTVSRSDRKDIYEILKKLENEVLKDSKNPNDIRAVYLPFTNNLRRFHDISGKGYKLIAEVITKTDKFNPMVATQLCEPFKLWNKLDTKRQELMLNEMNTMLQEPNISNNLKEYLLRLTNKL

[2] = target: FAD-linked sulfhydryl oxidase ALR (Homo sapiens, UniProt P55789); assay: ALR-catalysed DTT oxidation blockers – biochemical, H2O2 detection, luminescence, cherry-pick, dose response (AID 493248)
[3] = target: T2, Short transient receptor potential channel 4 (Mus musculus, UniProt Q9QUQ5); assay: block of DAMGO-driven TRPC4 calcium entry – cell-based, HEK293 TRPC4/mu-opioid, Fluo-4 calcium, dose response (AID 434942); format: functional;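 note: potency of inhibitors blocking the TRPC4 calcium response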
T2 sequence (Q9QUQ5 whole entry): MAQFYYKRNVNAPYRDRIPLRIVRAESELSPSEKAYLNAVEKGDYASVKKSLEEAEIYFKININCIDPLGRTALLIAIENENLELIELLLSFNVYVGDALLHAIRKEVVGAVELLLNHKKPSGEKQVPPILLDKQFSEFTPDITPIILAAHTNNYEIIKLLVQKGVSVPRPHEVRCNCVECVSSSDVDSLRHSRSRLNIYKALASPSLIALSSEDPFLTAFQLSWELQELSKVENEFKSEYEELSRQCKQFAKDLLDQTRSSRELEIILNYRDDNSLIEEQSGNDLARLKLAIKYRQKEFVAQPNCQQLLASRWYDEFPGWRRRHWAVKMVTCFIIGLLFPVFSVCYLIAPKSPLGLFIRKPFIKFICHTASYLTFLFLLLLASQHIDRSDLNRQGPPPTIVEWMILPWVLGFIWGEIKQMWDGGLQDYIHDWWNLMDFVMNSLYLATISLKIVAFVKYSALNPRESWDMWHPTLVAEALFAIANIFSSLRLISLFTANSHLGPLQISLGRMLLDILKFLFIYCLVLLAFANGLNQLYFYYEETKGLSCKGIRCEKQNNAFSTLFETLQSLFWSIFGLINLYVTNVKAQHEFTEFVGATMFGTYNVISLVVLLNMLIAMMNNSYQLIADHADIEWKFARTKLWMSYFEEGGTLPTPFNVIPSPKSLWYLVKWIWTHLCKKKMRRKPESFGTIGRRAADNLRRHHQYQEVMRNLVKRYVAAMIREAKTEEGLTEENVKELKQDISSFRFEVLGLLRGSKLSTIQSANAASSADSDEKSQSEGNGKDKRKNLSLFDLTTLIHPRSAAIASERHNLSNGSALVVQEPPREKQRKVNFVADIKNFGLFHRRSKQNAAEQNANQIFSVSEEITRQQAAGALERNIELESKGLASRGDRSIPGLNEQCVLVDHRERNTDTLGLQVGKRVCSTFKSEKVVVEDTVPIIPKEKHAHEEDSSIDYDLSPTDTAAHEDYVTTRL

[4] = target: T3, High affinity choline transporter 1 (Homo sapiens, UniProt Q9GZV3); assay: human choline transporter blockers, potency – cell-based, 5-point CRC, membrane potential dye, dose response (AID 504840); format: functional
T3 sequence (Q9GZV3 whole entry): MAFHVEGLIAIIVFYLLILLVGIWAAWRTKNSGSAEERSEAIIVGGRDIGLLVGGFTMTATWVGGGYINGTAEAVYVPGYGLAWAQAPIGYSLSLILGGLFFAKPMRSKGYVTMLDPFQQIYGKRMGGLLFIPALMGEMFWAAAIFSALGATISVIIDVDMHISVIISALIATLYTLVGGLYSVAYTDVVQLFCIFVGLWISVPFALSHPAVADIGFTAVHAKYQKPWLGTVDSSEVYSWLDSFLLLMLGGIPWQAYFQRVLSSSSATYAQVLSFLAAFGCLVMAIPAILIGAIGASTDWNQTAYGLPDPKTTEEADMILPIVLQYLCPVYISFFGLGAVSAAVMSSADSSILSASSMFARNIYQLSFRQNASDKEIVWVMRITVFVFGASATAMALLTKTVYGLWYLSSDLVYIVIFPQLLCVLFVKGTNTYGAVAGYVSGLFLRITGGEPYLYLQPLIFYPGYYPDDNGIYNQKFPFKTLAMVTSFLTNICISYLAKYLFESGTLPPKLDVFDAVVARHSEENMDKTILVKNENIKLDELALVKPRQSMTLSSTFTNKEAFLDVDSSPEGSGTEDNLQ

[5] = target: Genome polyprotein (dengue virus type 2, UniProt P29990); assay: flavivirus cap methylation enzyme inhibition – biochemical, confirmation dose response, primary screen (AID 588689); format: functional
[6] = cells; format: functional, cell-based
[7] = cells; format: functional, cell-based; remark: listed apart in the source
[8] = target: T4, Heat shock factor protein 1 (Mus musculus, UniProt P38532); assay: decrease of HSF1-responsive luciferase luminescence – cell-based, NIH3T3, dose retest, confirmation (AID 2382); format: functional;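 note: NIH3T3 fibroblasts with HSF1-driven luciferase reporter stressed by proteasome inhibitor MG132; luminescence from HSF1-driven luciferase expression after 8 hours of MG132 stress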
T4 sequence (P38532 whole entry): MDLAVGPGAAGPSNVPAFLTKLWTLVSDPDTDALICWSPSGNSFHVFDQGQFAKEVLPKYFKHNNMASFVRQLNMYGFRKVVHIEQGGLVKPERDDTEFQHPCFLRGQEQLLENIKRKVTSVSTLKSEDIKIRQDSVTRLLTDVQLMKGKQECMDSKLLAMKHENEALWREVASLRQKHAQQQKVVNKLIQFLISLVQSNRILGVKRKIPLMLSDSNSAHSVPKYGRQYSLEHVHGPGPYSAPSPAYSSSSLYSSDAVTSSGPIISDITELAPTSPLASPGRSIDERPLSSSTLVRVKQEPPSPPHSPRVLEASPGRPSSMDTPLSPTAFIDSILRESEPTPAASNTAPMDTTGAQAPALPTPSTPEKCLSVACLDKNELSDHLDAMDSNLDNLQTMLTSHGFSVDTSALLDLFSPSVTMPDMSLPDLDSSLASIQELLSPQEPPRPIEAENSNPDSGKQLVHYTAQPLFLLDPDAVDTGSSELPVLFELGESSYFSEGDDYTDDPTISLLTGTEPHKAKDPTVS

Chain of Genome polyprotein (P29990 2492-3391 limits assumed): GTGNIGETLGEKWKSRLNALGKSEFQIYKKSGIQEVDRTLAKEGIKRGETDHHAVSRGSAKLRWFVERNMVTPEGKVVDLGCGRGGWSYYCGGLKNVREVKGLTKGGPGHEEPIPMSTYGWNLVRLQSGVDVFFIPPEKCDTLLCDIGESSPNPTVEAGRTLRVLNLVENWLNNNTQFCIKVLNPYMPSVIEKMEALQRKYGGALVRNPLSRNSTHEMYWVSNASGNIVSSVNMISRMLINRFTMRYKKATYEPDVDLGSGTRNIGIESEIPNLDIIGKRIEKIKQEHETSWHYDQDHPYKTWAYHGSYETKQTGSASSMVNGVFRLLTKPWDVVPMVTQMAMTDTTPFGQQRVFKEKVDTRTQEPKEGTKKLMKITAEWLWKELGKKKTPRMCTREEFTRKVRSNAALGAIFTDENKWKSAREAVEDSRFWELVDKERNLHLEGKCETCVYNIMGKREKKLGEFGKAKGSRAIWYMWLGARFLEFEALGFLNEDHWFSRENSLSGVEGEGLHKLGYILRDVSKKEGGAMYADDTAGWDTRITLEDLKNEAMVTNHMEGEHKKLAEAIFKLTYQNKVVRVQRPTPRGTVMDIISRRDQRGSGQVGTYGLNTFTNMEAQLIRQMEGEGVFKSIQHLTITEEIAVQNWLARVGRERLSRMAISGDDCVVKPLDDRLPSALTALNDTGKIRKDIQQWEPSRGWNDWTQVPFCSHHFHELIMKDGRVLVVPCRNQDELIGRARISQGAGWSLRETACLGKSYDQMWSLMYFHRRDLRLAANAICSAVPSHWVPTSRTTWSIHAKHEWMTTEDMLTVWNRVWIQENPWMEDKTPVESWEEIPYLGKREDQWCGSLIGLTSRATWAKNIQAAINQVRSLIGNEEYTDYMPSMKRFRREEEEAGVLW
Chain of FAD-linked sulfhydryl oxidase ALR (P55789 whole entry): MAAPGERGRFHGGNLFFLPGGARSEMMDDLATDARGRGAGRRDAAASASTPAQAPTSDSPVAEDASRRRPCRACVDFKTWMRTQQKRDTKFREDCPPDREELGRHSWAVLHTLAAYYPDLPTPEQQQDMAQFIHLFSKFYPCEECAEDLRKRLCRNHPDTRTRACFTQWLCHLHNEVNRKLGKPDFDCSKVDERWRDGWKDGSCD

| SMILES | IC50 [1] | EC50 [3] | IC50 [4] | further results |
| --- | --- | --- | --- | --- |
| CCCCCCC(=O)N(O)C1CC(=O)N(c2ccccc2)C1=O (stereo not given) | 66.5 µM (active) | – | – | – |
| c1ccc(Nc2[nH]nnc2-c2ccccc2)cc1 | – | 1.88 µM (active) | – | AC50 [2]: > 100 µM (inactive) |
| CCC1=Nc2cc(C(=O)N3CCC4(CC3)OCCO4)ccc2Sc2ccc(C)cc21 | – | 7.5 µM (active) | – | – |
| Cc1c(N2C(=O)C(O)=C(C(=O)c3ccc(Br)cc3)C2c2cccnc2)c(=O)n(-c2ccccc2)n1C (stereo not given) | 38.1 µM (active) | – | – | – |
| S=C(NCCCN1CCOCC1)Nc1cccc(-c2nnc3n2CCCCC3)c1 | – | – | 13.9 µM (active) | – |
| O=C(O)C(c1ccccc1)N1C(=O)/C(=C/c2cccs2)SC1=S (stereo not given) | 57.7 µM (active) | – | – | IC50 [5]: 46.9 µM (active) |
| CN1CCN(c2ccc(NC(=O)c3ccc(Br)o3)cc2)CC1 | – | 0.841 µM (active) | – | – |
| CC(C)=CCN1CCN(Cc2cn(C(C)C)c3ccccc23)CC1CCO (stereo not given) | – | – | 13.2 µM (active) | – |
| CCOC(=O)c1sc(NC(=O)CCN2CCN(C)CC2)c(C(=O)OCC)c1C | – | – | 14.5 µM (active) | – |
| O=C(CCc1ccccc1)Nc1ccnn1C1CCN(C/C=C/c2ccccc2)CC1 | – | 1.5 µM (active) | – | EC50 [6]: > 350 µM (not active); EC50 [7]: > 350 µM (not active) |
| COc1cccc(OC)c1OCCCCCc1c(C)n[nH]c1C | – | – | 9.12 µM (active) | – |
| Cc1cc(OCC(=O)Nc2ccc(N3CCN(C)CC3)cc2)ccc1Cl | – | 2.66 µM (active) | – | – |
| CC1CCN(S(=O)(=O)c2ccc3c(c2)N(CC(=O)NCCN2C(C)CCCC2C)C(=O)CS3)CC1 (stereo not given) | – | – | 11.3 µM (active) | – |
| COc1ccc(OCC(=O)N2CCN(C(=O)COc3ccc(Br)cc3)CC2)cc1 | 59.2 µM (active) | – | – | – |
| O=C(O)c1cccc(NC(=S)NC(NC(=O)c2ccco2)C(Cl)(Cl)Cl)c1 (stereo not given) | 39.9 µM (active) | – | – | EC50 [8]: > 195 µM (not active) |
